This note sets out measurements from patent US9221833B2, “Antiviral compounds” (GILEAD PHARMASSET LLC, priority 2011, dated 2015).

Common to all, as to type: cell-based, HCV
Experiment [1] relates to genotype 2a J6 strain NS5A gene (M31 present). Briefly: Replicon assay, NS5A chimeric 2a JFH-1 replicon with 2a J6 NS5A, transient (t) or stable (s), Huh-Lunet cells. Conditions: Hepatitis C virus; for pEC50: read-out: 2a J6; for EC50: read-out: 2a J6 (t) (nM). As for the experimental part:
(§1) Evaluation of cell-based anti-HCV activity: Antiviral potency (EC50) was determined using a Renilla luciferase (RLuc)-based HCV replicon reporter assay. […] To perform the assay for genotype 2a (with M31 present in NS5A) or 2b, NS5A chimeric genotype 2a JFH-1 replicons that encodes a RLuc-Neo reporter and either genotype 2a J6 strain NS5A gene or genotype 2b MD2b-1 strain NS5A gene (both with M31 present) respectively, were either transiently transfected (t) into Huh-Lunet cells or were established as stably replicating replicon cells (s) is provided. Either cells were dispensed into 384-well plates for EC50 assays. To perform the assay for genotype 3 and 4, NS5A chimeric genotype 1b Con1 replicons that encodes a Pi-RLuc reporter and either genotype 3a S52 strain NS5A gene or genotype 4a ED43 strain NS5A gene respectively, were transiently transfected (t) into Huh-Lunet cells, which were subsequently dispensed into 384-well plates. Compounds were dissolved in DMSO at a concentration of 10 mM and diluted in DMSO either manually or using an automated pipeting instrument. Serially 3-fold diluted compounds were either manually mixed with cell culture media and added to the seeded cells or directly added to the cells using an automated instrument. […] 72 hours later, cells were lysed and Renilla luciferase activity quantified as recommended by the manufacturer (Promega-Madison, Wis.). Non-linear regression was performed to calculate EC50 values.
(A replicon is a self-replicating genome or part of one, used to study replication in cells.)

Experiment [2] deals with genotype 2a JFH-1 replicon (L31 present in NS5A). Put plainly: microbe, parasite or virus in culture. Conditions: Hepatitis C virus, read-out: 2a JFH.
Experiment [3] concerns genotype 3a S52 strain NS5A gene. Put plainly: Replicon assay, NS5A chimeric 1b Con1 replicon with 3a NS5A, transiently transfected Huh-Lunet cells. The conditions noted are these: Hepatitis C virus; for pEC50: read-out: 3a; for EC50: read-out: 3a (nM). As for the experimental part:
as §1

For experiment [4], the system named is genotype 2b MD2b-1 strain NS5A gene (M31 present). Briefly: microbe, parasite or virus in culture. The conditions noted are these: Hepatitis C virus; for pEC50: read-out: 2b. As for the experimental part: as §1
For experiment [5], the system named is genotype 2a JFH-1 replicon (L31 present in NS5A). Put plainly: microbe, parasite or virus in culture. The conditions noted are these: Hepatitis C virus, read-out: 2a JFH (nM). As for the experimental part:
as §1

The test system of a further experiment is genotype 1a H77 replicon. Briefly: microbe, parasite or virus in culture. Conditions: Hepatitis C virus; for pEC50: read-out: 1a; for EC50: read-out: 1a (nM). As for the experimental part: as §1
In a further experiment the test system is Q30R in genotype 1a NS5A. Put plainly: Antiviral potency against resistance mutant, 1a Pi-Rluc replicon in Huh-7-derived cured-51 cells. The conditions noted are these: Hepatitis C virus; for pEC50: read-out: 1a Q30R. As for the experimental part:
as §1
To determine the antiviral potency (EC50) against resistance mutants, resistance mutations, including M28T, Q30R, Q30H, L31M, and Y93C in genotype 1a NS5A and Y93H in genotype 1b NS5A, were introduced individually into either 1a Pi-Rluc or 1b Pi-Rluc replicons by site directed mutagenesis. Replicon RNA of each resistant mutant was transiently transfected into Huh-7-derived cured-51 cells and antiviral potency was determined on these transfected cells as described above.

The subject of experiment [6] is genotype 4a ED43 strain NS5A gene. Put plainly: Replicon assay, NS5A chimeric 1b Con1 replicon with 4a NS5A, transiently transfected Huh-Lunet cells. Conditions: Hepatitis C virus; for pEC50: read-out: 4a; for EC50: read-out: 4a (s) (nM). As for the experimental part:
as §1, with “[…],” for “were transiently transfected (t) into Huh-Lunet cells,”

Experiment [7] deals with genotype 1b Con1 replicon. Briefly: microbe, parasite or virus in culture. Conditions: Hepatitis C virus, read-out: 1b (nM). As for the experimental part: as §1

pEC50: −log10 of the molar value. Read-outs that look alike come from different tables or passages of the source.

Regarding `COC[C@H]1C[C@@H](c2ncc(-c3ccc4c(c3)COc3cc5c(ccc6nc([C@@H]7CCCN7C(=O)[C@H](NC(=O)OC)c7ccccc7)[nH]c65)cc3-4)[nH]2)N(C(=O)[C@@H](NC(=O)OC)C(C)C)C1` [Example PH, methyl {(2S)-1-[(2S,4S)-2-(5-{2-[(2S)-1-{(2R)-2-[(methoxycarbonyl)amino]-2-phenylacetyl}pyrrolidin-2-yl]-1,11-dihydroisochromeno[4′,3′:6,7]naphtho[1,2-d]imidazol-9-yl}-1H-imidazol-2-yl)-4-(methoxymethyl)pyrrolidin-1-yl]-3-methyl-1-oxobutan-2-yl}carbamate], the pEC50 (in experiment [1]; in [2]; in [3]; in experiment [4]; with genotype 1a H77 replicon; in the experiment with Q30R in genotype 1a NS5A) was greater than 9.00 throughout. Besides, the EC50 in experiment [1] turned out to be 0.055 nM; in [3] it was 0.029 nM; in [4] (read-out: 2b (t) (nM)), 0.042 nM; in experiment [5], 0.014 nM; with genotype 1a H77 replicon it was 0.024 nM; in the experiment on Q30R in genotype 1a NS5A (read-out: 1a Q30R (nM)) it was 0.051 nM.
Regarding `COC(=O)N[C@H](C(=O)N1CCC[C@H]1c1nc2c(ccc3cc4c(cc32)OCc2cc(-c3cnc([C@@H]5CCCN5C(=O)[C@H](NC(=O)OC)c5ccccc5)[nH]3)ccc2-4)[nH]1)C(C)C` [Example MD], the pEC50 (in experiment [1]; in [2]; in experiment [3]; in experiment [4]; in the experiment with genotype 1a H77 replicon; in the experiment with Q30R in genotype 1a NS5A) was greater than 9.00 in each case. Moreover, the pEC50 in experiment [6] is greater than 9.00. Further, the EC50 in experiment [3] and in experiment [5] was 0.006 nM throughout.
As for `CCC(C)[C@H](NC(=O)OC)C(=O)N1C[C@@H](C)CC1c1ncc(-c2ccc3c(c2)COc2cc4c(ccc5nc([C@@H]6C[C@H](COC)CN6C(=O)[C@@H](NC(=O)OC)C(C)OC)[nH]c54)cc2-3)[nH]1` (stereo in doubt) [Example QD, Methyl {(2S,3R)-1-[(2S,4S)-2-(5-{2-[(2S,4S)-1-[N-(methoxycarbonyl)-O-methyl-L-allothreonyl]-4-(methoxymethyl)pyrrolidin-2-yl]-1,11-dihydroisochromeno[4′,3′:6,7]naphtho[1,2-d]imidazol-9-yl}-1H-imidazol-2-yl)-4-methylpyrrolidin-1-yl]-3-methyl-1-oxopentan-2-yl}carbamate], the pEC50 (in experiment [1]; in [2]; in [4]; in the experiment with genotype 1a H77 replicon) was greater than 9.00 each time. The EC50 in experiment [7] turned out to be 0.03 nM.
For the compound `COC[C@H]1CC(c2ncc(-c3ccc4c(c3)COc3cc5c(ccc6nc([C@@H]7CC[C@H](C)N7C(=O)[C@@H](NC(=O)OC)C(C)C)[nH]c65)cc3-4)[nH]2)N(C(=O)[C@@H](NC(=O)OC)C(C)OC)C1` (stereo in doubt) [Example QA, Methyl {(2S)-1-[(2S,5S)-2-(9-{2-[(2S,4S)-1-{(2S,3S)-3-methoxy-2-[(methoxycarbonyl)amino]butanoyl}-4-(methoxymethyl)pyrrolidin-2-yl]-1H-imidazol-5-yl}-1,11-dihydroisochromeno[4′,3′:6,7]naphtho[1,2-d]imidazol-2-yl)-5-methylpyrrolidin-1-yl]-3-methyl-1-oxobutan-2-yl}carbamate], the pEC50 (in [1]; in experiment [2]; in experiment [3]; in experiment [4]; in the experiment with genotype 1a H77 replicon; in the experiment on Q30R in genotype 1a NS5A) was greater than 9.00 in each case. Also, the EC50 turned out to be 0.04 nM in [4] (read-out: 2b (s) (nM)) and 0.007 nM in [5].
`COC(=O)N[C@H](C(=O)N1CCC[C@H]1c1ncc(-c2ccc3c(c2)COc2cc4c(cc2-3)CCc2[nH]c([C@@H]3CCCN3C(=O)[C@H](NC(=O)OC)c3ccccc3)nc2-4)[nH]1)C(C)C` [Example MG]: the pEC50 (in [1]; in experiment [2]; in experiment [3]; in experiment [4]; in the experiment with genotype 1a H77 replicon; with Q30R in genotype 1a NS5A) was greater than 9.00 throughout. For the same compound, the pEC50 in experiment [6] is greater than 9.00. In addition, the EC50 in [3] was 0.01 nM; in experiment [4] (read-out: 2b (s) (nM)) it was 0.07 nM; in [6], 0.08 nM.
For `COC[C@H]1C[C@@H](c2nc3ccc4cc5c(cc4c3[nH]2)OCc2cc(-c3cnc([C@@H]4C[C@H]6C[C@H]6N4C(=O)[C@@H](NC(=O)OC)[C@@H](C)OC)[nH]3)ccc2-5)N(C(=O)[C@H](NC(=O)OC)c2ccccc2)C1` [Example MX], the pEC50 (in experiment [1]; in experiment [2]; in experiment [4]; with genotype 1a H77 replicon; in experiment [6]) was greater than 9.00 in each case. The EC50 in experiment [1] was 0.035 nM; in [4] (read-out: 2b (s) (nM)), 0.139 nM; in experiment [4] (read-out: 2b (t) (nM)), 0.07 nM; in experiment [5], 0.024 nM; in [7], 0.076 nM; in the experiment with genotype 1a H77 replicon it was 0.036 nM. Besides, the EC50 in experiment [6] came to 0.033 nM.
In the case of `COC(=O)N[C@H](C(=O)N1CCC[C@H]1c1nc2c([nH]1)CCc1cc3c(cc1-2)OCc1cc(-c2cnc([C@@H]4CCCN4C(=O)[C@H](NC(=O)OC)c4ccccc4)[nH]2)ccc1-3)C(C)C` [Example MF, methyl [1-(2-{5-[2-(1-{[(methoxycarbonyl)amino]-3-methyl-1-oxobutan-2-yl}pyrrolidin-2-yl)-1,4,5,11-tetrahydroisochromeno[4′,3′:6,7]naphtho[1,2-d]imidazol-9-yl]-1H-imidazol-2-yl}pyrrolidin-1-yl)-phenyl-1-oxoacet-2-yl]carbamate], the pEC50 (in [1]; in [2]; in [3]; in experiment [4]; in the experiment with genotype 1a H77 replicon; in the experiment on Q30R in genotype 1a NS5A) was greater than 9.00 throughout. The pEC50 in experiment [6] is greater than 9.00.
Consider `CC[C@@H](C)[C@H](NC(=O)OC)C(=O)N1C[C@@H](C)C[C@H]1c1ncc(-c2ccc3c(c2)COc2cc4c(ccc5nc([C@@H]6C[C@H](COC)CN6C(=O)[C@H](NC(=O)OC)c6ccccc6)[nH]c54)cc2-3)[nH]1` [Example QB, Methyl {(1R)-2-[(2S,4S)-2-(9-{2-[(2S,4S)-1-{(2S,3R)-2-[(methoxycarbonyl)amino]-3-methylpentanoyl}-4-methylpyrrolidin-2-yl]-1H-imidazol-5-yl}-1,11-dihydroisochromeno[4′,3′:6,7]naphtho[1,2-d]imidazol-2-yl)-4-(methoxymethyl)pyrrolidin-1-yl]-2-oxo-1-phenylethyl}carbamate], for which the pEC50 (in experiment [1]; in [2]; in [3]; in experiment [4]; in the experiment with genotype 1a H77 replicon; with Q30R in genotype 1a NS5A) was greater than 9.00 throughout. Also, the EC50 in experiment [5] amounted to 0.008 nM.
